Measured values published in US20040115822A1, “Methods of measuring the dissolution rate of an analyte in a non-aqueous liquid composition” (priority 2002, published 2004).

Assay: Solubility of CCFA as a function of pH
Type: physicochemical
Details: below pH 5
Description: In this example, CCFA was employed as the analyte. The solubility of CCFA varies as a function of pH.

solubility of CCFA: relatively insoluble
Structure (SMILES): CO/N=C(\C(=O)N[C@@H]1C(=O)N2C(C(=O)O)=C(CSC(=O)c3ccco3)CS[C@H]12)c1csc(N)n1 [CCFA, ceftiofur crystalline free acid]
